Type in all cases: cell-based
Test [1] deals with T1, TRPM8 (Homo sapiens, UniProt Q7Z2W7).
T1 construct: expressed in transfected cells
Description: In vitro Fluo8-NW calcium assay (FLIPR) on HEK293T cells stably overexpressing TRPM8. Particulars: for TRPM8 screening result: single dose, qualitative. The source says:
(§1) Pure phytochemicals were submitted to in vitro assays with a platform of twenty cloned receptors of the bitter taste TAS2R family and four receptors of the TRP family related to the perception of taste and somatosensory sensations. All experiments have been repeated three times, each time with four replicates. […] For simplicity, only those bitter taste receptors having reproducible positive assay, namely TASR10, 14 and 49, are reported (Table 1).
(§2) For those compounds showing activity on one or more receptor(s), the concentration/response curves were plotted and the EC50 calculated.
(§3) For the biological tests, several compounds were purchased as references from different suppliers (Sigma Aldrich, ChromaDex, Irvine, CA, USA, and Tocris Bioscience, Bristol, UK) and dissolved in assay buffer (130 mM NaCl, 5 mM KCl, 1 mM MgCl2, 2 mM CaCl2, 5 mM NaHCO3 and 20 mM HEPES, pH 7.4) or in a mixture of assay buffer and DMSO, never exceeding a final DMSO concentration of 0.5% (v/v) to avoid toxic effects and possible artefacts on transfected cells.
(§4) All human TAS2R and G15Gi1 cDNAs were produced as reported in Bassoli et al. cDNAs for human TRPA1-M5-M8-V1-V4 were cloned into a pcDNA6 expression vector (Invitrogen-Thermo Fisher, Waltham, MA, USA).
(§5) All experiments were performed using HEK293T cells (ATCC).
(§6) For TRP platform experiments, cells were cultured in MEM/EBSS medium (ECB2071L EuroClone, Milan, Italy) plus 10% (v/v) fetal bovine serum (FBS) (26400-044 Gibco, Karlsruhe, Germany) and 1% (v/v) Pen/Strep 10K/10K stock (17-602E Lonza, Basel, Switzerland). Stable cell lines were generated overexpressing each TRP channel, and clones were selected with 500 µg/mL of G418 (ant-gn-5 Invivogen, Karlsruhe, Germany). To analyze TRP receptor responses, cells were plated at a concentration of 20,000 cells/well in 384-well plates (GR-4330 Twin Helix srl, Milan, Italy). Cellular responses were measured 24 h after seeding.
(§7) For TRPA1-M8-V1-V4 experiments, a solution of Fluo8-NW calcium-sensitive dye (36316 AAT BioQuest, Sunnyvale, CA, USA) was prepared using the assaybuffer and diluting the kit components 1:2 according to the manufacturer’s instructions. Twenty-four hours after seeding, cells were incubated one hour at RT, loaded with 40 µL of Fluo8-NW solution for each well and incubated again for one hour at RT before data acquisition.
(§8) For TRPM5 experiments, cells were loaded 24 h after seeding with a Membrane Potential Dye (R8034 MDC) solution in assay buffer according to the manufacturer’s instructions and incubated at 37 °C for 1 h before acquisition. All experiments were performed using a fluorometric imaging plate reader (FLIPR^TETRA, Molecular Devices equipped with ICCD Camera from Stanford Photonics, INC, (Palo Alto, CA, USA) and kinetics were visualized with Molecular Devices’ Screenworks 3.0 (Sunnyvale, CA, USA).
(§9) For the calculation of concentration-response curves, responses were calculated as the difference between maximal and minimal relative fluorescence unit (RFU) values in a selected time window (11–60 s) and were normalized to the basal well fluorescence (Time Point 1, before compound injection) in order to compensate for differences in cell density (∆F/F0). All of the experiments have been repeated three times, each time with four replicates. All of the results are averages of at least four replicates. Raw data are available in Supplementary Material, Figures S3–S6.

Test [2] concerns the target T2, TAS2R14 (Homo sapiens, UniProt Q9NYV8).
T2 construct: expressed in transfected cells; host or cells: HEK293T
T2 sequence (Q9NYV8 1-317): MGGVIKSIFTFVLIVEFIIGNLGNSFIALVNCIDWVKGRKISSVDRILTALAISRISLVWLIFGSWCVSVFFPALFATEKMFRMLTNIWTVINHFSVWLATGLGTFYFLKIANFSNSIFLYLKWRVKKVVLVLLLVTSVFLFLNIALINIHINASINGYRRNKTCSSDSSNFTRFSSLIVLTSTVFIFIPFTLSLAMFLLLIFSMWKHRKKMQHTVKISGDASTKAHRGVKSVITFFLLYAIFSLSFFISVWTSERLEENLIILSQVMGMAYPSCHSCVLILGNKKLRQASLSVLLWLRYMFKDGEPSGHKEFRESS
Briefly: In vitro calcium imaging assay on cloned TAS2R14 in transfected HEK293T cells. Particulars: for TAS2R14 screening result: single dose, qualitative.
Source text: as §1, §2, §3, §4, §5
(§10) For the bitter platform experiments, cells were cultured, transfected and analyzed as previously described.
(§11) For the bitter platform experiments, data analyses were performed as previously described.
as §9

Test [3] addresses T3, TAS2R49 (Homo sapiens, UniProt P59543).
T3 construct: expressed in transfected cells; host or cells: HEK293T
T3 sequence (P59543 1-309): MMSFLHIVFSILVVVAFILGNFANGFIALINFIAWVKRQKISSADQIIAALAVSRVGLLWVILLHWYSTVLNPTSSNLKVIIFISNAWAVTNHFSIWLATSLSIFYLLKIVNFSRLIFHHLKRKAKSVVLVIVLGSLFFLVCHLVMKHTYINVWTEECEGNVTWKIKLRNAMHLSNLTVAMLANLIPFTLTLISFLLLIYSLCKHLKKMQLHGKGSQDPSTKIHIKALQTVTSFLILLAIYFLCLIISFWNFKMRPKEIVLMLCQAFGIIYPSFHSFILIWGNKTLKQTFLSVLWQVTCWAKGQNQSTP
Briefly: In vitro calcium imaging assay on cloned TAS2R49 in transfected HEK293T cells. Particulars: for TAS2R49 screening result: single dose, qualitative.
Source text: as §1, §2, §3, §4, §5, §10, §11, §9

In test [4] the target is T4, TAS2R10 (Homo sapiens, UniProt Q9NYW0).
T4 construct: expressed in transfected cells; host or cells: HEK293T
T4 sequence (Q9NYW0 1-307): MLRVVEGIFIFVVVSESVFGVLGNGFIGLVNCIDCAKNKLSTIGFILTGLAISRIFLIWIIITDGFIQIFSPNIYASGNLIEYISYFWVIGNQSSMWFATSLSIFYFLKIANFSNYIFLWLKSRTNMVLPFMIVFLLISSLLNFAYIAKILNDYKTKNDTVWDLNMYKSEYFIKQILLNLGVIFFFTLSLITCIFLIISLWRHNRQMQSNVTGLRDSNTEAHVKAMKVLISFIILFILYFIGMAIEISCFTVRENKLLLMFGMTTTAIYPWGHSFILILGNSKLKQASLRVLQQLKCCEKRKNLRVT
Briefly: In vitro calcium imaging assay on cloned TAS2R10 in transfected HEK293T cells. Particulars: for TAS2R10 screening result: single dose, qualitative.
Source text: as §1, §2, §3, §4, §5, §10, §11, §9

The target of test [5] is T5, TRPV1 (Homo sapiens, UniProt Q8NER1).
T5 construct: expressed in transfected cells
Briefly: In vitro Fluo8-NW calcium assay (FLIPR) on HEK293T cells stably overexpressing TRPV1. Particulars: for TRPV1 screening result: single dose, qualitative.
Source text: as §1, §3, §4, §5, §6, §7, §8, §9

Where [6] appears, read: concentration/response curve, values with ≥ estimated, curve did not saturate, read-out: EC50 TAS2R10.
[7] abbreviates: concentration/response curve, values with ≥ estimated, curve did not saturate, read-out: EC50 TAS2R14.

Structures are written as SMILES. Entries after “also recorded” stand apart in the source; their conditions may differ. Where two headings read alike, the source gives them in different places.

A word on the EC50: it is the concentration giving half of the maximal effect.

T5 sequence (Q8NER1 whole entry): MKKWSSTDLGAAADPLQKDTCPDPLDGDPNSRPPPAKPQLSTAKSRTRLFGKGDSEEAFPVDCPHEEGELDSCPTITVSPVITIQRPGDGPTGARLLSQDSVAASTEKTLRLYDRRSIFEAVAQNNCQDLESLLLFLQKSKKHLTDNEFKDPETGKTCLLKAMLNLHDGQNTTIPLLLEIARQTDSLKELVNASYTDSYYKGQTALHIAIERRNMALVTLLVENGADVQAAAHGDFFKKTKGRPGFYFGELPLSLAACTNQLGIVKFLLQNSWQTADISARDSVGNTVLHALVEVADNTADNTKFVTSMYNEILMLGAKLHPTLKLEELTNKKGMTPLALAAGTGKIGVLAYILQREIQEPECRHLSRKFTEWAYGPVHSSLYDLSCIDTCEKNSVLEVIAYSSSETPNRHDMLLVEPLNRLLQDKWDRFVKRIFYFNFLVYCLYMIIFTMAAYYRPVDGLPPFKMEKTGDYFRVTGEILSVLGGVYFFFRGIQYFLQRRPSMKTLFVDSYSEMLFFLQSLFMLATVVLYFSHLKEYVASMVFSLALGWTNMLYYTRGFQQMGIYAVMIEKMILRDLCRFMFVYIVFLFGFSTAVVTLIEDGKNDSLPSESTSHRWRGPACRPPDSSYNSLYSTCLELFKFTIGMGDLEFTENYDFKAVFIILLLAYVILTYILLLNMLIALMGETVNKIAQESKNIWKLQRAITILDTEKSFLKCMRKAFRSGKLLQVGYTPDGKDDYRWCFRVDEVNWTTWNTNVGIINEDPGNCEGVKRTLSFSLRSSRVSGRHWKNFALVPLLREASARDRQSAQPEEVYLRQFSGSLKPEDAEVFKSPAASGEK
T1 sequence (Q7Z2W7 whole entry): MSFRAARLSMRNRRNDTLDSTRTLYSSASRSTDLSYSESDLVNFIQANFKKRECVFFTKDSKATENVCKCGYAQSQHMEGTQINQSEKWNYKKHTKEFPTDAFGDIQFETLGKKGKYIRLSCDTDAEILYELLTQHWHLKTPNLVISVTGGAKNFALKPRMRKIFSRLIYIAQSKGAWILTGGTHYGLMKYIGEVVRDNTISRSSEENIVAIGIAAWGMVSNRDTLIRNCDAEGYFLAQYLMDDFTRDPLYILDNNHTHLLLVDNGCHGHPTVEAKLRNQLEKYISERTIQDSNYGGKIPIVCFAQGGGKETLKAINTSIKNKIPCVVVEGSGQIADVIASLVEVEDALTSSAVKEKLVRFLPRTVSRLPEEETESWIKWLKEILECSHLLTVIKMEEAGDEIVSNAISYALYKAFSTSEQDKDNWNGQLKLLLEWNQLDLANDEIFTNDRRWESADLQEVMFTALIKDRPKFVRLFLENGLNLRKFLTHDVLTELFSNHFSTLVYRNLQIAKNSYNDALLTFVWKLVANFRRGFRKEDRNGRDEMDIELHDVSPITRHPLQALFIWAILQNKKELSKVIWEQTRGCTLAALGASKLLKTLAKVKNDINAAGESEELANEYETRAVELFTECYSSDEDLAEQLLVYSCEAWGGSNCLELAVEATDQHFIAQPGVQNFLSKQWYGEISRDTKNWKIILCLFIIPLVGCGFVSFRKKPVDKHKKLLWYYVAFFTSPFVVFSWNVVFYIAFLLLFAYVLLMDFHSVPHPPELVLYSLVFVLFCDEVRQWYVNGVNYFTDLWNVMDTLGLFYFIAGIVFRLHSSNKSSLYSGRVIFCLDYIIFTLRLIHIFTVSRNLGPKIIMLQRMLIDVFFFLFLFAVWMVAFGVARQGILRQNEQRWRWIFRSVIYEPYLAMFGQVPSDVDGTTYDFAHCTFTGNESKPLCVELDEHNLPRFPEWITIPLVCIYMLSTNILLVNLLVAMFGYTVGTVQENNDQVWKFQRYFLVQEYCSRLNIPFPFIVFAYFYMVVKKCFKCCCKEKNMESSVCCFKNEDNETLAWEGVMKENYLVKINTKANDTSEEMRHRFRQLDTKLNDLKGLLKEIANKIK

Consider `C[C@@H]1O[C@@H](OC[C@H]2O[C@@H](Oc3c(-c4ccc(O)c(O)c4)oc4cc(O)cc(O)c4c3=O)[C@H](O)[C@@H](O)[C@@H]2O)[C@H](O)[C@H](O)[C@H]1O` [Compound 1, rutin], for which the TRPM8 screening result in test [1] is on record as “−”. The TAS2R14 screening result in test [2] is “−”. Besides, the TAS2R49 screening result in test [3] is given as “−”. The TAS2R10 screening result in test [4] is on record as “−”. Moreover, the TRPV1 screening result in test [5] is recorded as “−”.
With `C=CC(C)(C)c1cc2cc3c(cc2oc1=O)OC(C(C)(C)OC(C)=O)C3` (centres unmarked) [Compound 2, rutamarin], in test [1], the “Activity on TRPM8 (in words)” value was “strong antagonist”. Also, in test [2], the TAS2R14 screening result is reported as “−”. In test [3], the TAS2R49 screening result is given as “−”. Further, in test [4], the TAS2R10 screening result is reported as “−”. Besides, in test [5], the “Activity on TRPV1 (in words)” value is “agonist” and the TRPV1 screening result is on record as “+”.
`COc1c2ccoc2cc2oc(=O)ccc12` [Compound 3, bergapten]: the TRPM8 screening result in test [1] is listed as “−”. Also, in test [2], the “Activity on TAS2R14 (in words)” value was “inactive” and the TAS2R14 screening result was “−”. Besides, the TAS2R49 screening result in test [3] is “−”. In test [4], the “Activity on TAS2R10 (in words)” value is “selective and strong agonist”; the TAS2R10 screening result is on record as “+++”. Moreover, the EC50 in test [4] (setting [6]) is 2.8 µM. Also, the TRPV1 screening result in test [5] is listed as “−”.
In the case of `COc1c2occc2cc2ccc(=O)oc12` [Compound 4, xanthotoxin], in test [1], the TRPM8 screening result is given as “−”. In test [2], the EC50 is not below 10.8 µM and the TAS2R14 screening result was “+”. Also, in test [3], the “Activity on TAS2R49 (in words)” value is given as “responded; also recorded: able to activate”, the half-maximal effective concentration (EC50) turned out to be 12 µM and the TAS2R49 screening result is “++”. In test [4], the “Activity on TAS2R10 (in words)” value is given as “responded”, the EC50 was not below 20.6 µM and the TAS2R10 screening result is listed as “+”. In addition, in test [5], the TRPV1 screening result is listed as “−”.
Consider `COc1c2ccoc2c(OC)c2oc(=O)ccc12` [Compound 5, isopimpinellin], for which the TRPM8 screening result in test [1] is “−”. Moreover, in test [2], the “Activity on TAS2R14 (in words)” value is on record as “responded” and the TAS2R14 screening result was “+”. Moreover, the concentration for a half-maximal effect (EC50) in test [2] (setting [7]) was 11.1 µM. Also, the TAS2R49 screening result in test [3] is “−”. Besides, the EC50 in test [4] (setting [6]) is 12 µM. Moreover, in test [4], the TAS2R10 screening result is reported as “++”. The TRPV1 screening result in test [5] was “−”.
Consider `COc1cc2nc3occc3c(OC)c2cc1OC` [Compound 7, kokusaginin], for which the TRPM8 screening result in test [1] was “−”. Besides, the TAS2R14 screening result in test [2] is “−”. Further, the TAS2R49 screening result in test [3] is “−”. Further, in test [4], the TAS2R10 screening result was “−”. The TRPV1 screening result in test [5] was “−”.
With `COc1ccc2c(OC)c3ccoc3nc2c1OC` [Compound 8, skimmianine], in test [1], the TRPM8 screening result was “−”. Moreover, in test [2], the “Activity on TAS2R14 (in words)” value is on record as “selectively activate” and the TAS2R14 screening result is recorded as “+”. Besides, the 50% effective concentration (EC50) in test [2] (setting [7]) is not below 15.8 µM. In addition, in test [3], the TAS2R49 screening result was “−”. For the same compound, in test [4], the TAS2R10 screening result was “−”. Moreover, in test [5], the TRPV1 screening result is “−”.
As for `CCCCCCCCCC(C)=O` [Compound 9, 2-undecanone], the TRPM8 screening result in test [1] is on record as “−”. Also, the TAS2R14 screening result in test [2] is listed as “−”. Also, the TAS2R49 screening result in test [3] was “−”. Also, the TAS2R10 screening result in test [4] is listed as “−”. Further, the TRPV1 screening result in test [5] is “−”.
On to `CCCCCCCC(C)=O` [Compound 10, 2-nonanone], for which, in test [1], the TRPM8 screening result is reported as “−”. Further, in test [2], the TAS2R14 screening result was “−”. In addition, the TAS2R49 screening result in test [3] is listed as “−”. Further, in test [4], the TAS2R10 screening result is “−”. In addition, in test [5], the TRPV1 screening result is on record as “−”.

The values are drawn from paper PMC6331789, “Phytochemicals from Ruta graveolens Activate TAS2R Bitter Taste Receptors and TRP Channels Involved in Gustation and Nociception” (Molecules, 2015).
